We go through 9 compounds from ChEMBL document CHEMBL1201862, “PubChem BioAssay data set” (2004).

Broadly, the IC50 is the concentration needed to halve the response being measured. The term AC50 denotes the concentration at which the activity in the assay is half-maximal. For orientation: EC50 means the concentration that produces a half-maximal response.

For one experiment, the target named is ELAV-like protein 1 (Homo sapiens, UniProt Q15717). Put plainly: Identify HuR specific inhibitors. The format is functional.
Chain of ELAV-like protein 1 (Q15717 whole entry): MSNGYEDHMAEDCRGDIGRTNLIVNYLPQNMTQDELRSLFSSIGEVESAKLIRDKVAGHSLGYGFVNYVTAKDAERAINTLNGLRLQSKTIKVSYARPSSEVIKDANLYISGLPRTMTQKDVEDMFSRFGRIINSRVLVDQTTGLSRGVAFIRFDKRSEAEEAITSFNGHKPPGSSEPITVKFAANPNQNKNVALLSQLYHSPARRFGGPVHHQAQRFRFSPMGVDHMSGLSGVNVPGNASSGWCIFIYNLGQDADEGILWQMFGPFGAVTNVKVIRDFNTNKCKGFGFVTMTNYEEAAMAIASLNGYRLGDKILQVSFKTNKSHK
Experiment [1] is described as follows: Concentration-dependent survival of SW480 colon cancer line, luminescence detection with CellTiter-Glo, half-maximal inhibitory concentration (AID 1117338). The format is functional.
Experiment [2] is described as follows: cytotoxicity toward Colo320 cells – cell-based, CellTiter-Glo luminescence, IC50, dose response (AID 1117334). The format is functional. Conditions: COLO 320. For orientation: Cellular ATP, detected with luciferase, serves as a proxy for viable cell number.
A short description of experiment [3]: RKO cell viability reduction, dose response, CellTiter-Glo luminescence (AID 1117322). The format is functional.
Experiment [4] can be described thus: HCT116 cell viability decrease, GSK3B pretreatment – CellTiter-Glo, IC50, dose response (AID 1117339). The format is functional. Conditions: HCT-116.
Experiment [5] can be described thus: CellTiter-Glo luminescent dose response of DLD-1 viability loss (AID 1117352). The format is functional.
The nature of experiment [6]: cytotoxicity toward HT-29 cells – cell-based, CellTiter-Glo luminescence, IC50, dose response (AID 1117330). The format is functional.
The nature of experiment [7]: SNU-C1 cell viability reduction, dose response, CellTiter-Glo luminescence (AID 1117323). The format is functional, cell-based.
The nature of experiment [8]: cytotoxicity toward HCT116 cells – cell-based, CellTiter-Glo luminescence, IC50, dose response (AID 1117332). The conditions noted are these: HCT-116. The format is functional.
The nature of experiment [9]: Dose-response inhibition of insulin secretion in a rat insulinoma line at 5 mM glucose (AID 1117331). The format is functional, cell-based. The conditions noted are these: INS-1E.
Experiment [10] is described as follows: Glucagon-like peptide 1 release potency, NCI-H716 cell line, dose-response, half-maximal inhibitory concentration (AID 1117344). The format is functional, cell-based.
Experiment [11] can be described thus: half-maximal inhibitory concentration for glucagon-like peptide-1 release, STC-1 cell line, dose-response (AID 1117345). The format is functional, cell-based.
In experiment [12] the test system is Cryptococcus neoformans. Put plainly: Cryptococcus growth inhibition by alamar blue – cell lysis, cherry-picks, replicate tests, mechanism study for C. neoformans antifungal project, dose response (AID 686999). The format is functional, organism-based. On the technique in general: Alamar Blue is a resazurin reagent that responds to reducing activity.
The next experiment deals with Streptococcus. Put plainly: Group A Streptococcus viability loss, dose response, counter-screen for streptokinase expression inhibitor project, luminescence, BacTiterGlo (AID 1915).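 Note: potency for reduction of bacterial viability or growth.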 The format is functional, organism-based.
The nature of experiment [13]: HEK293 cell cytotoxicity, dose response, cytotoxicity control, ATP luminescence, dry powder, set 3 (AID 743131). The format is functional, cell-based.
For another experiment, the target named is T1, Streptokinase A (Streptococcus pyogenes serotype M1, UniProt P10520).
T1 sequence (P10520 whole entry): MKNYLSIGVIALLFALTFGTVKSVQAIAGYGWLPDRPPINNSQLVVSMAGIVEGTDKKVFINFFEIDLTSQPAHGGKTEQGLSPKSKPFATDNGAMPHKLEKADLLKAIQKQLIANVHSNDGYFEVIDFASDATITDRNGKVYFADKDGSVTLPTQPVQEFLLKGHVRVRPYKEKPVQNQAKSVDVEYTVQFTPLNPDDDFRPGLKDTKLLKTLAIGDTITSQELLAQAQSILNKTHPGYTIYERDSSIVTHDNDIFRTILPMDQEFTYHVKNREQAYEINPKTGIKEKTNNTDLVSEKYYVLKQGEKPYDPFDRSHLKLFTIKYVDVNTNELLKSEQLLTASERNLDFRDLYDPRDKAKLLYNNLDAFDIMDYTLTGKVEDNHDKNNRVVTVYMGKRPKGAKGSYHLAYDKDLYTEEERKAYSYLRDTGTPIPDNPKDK
Description: S. pyogenes streptokinase expression inhibitors, potency, dose response, plasminogen activation absorbance, OD405 (AID 1914).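 Note: secreted streptokinase activity via plasminogen activation per viability signal from cell pellet.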 The format is functional, Streptococcus pyogenes M1 GAS.

In experiment [14] the test system is Streptococcus sp. 'group A'. Description: growth inhibition of control SK(-) GAS strain, dose response, counter-screen for streptokinase expression inhibitor project, luminescence, kanamycin, BacTiterGlo, confirmation (AID 1900). The format is functional, organism-based. (A counterscreen serves to expose hits that act by an unwanted route or on another target.)

The test system of experiment [15] is Cryptococcus neoformans. Description: PubChem AID 686997. The format is functional, organism-based.
Another experiment deals with HeLa. Put plainly: HeLa cell cytotoxicity, dose response, cytotoxicity control, ATP luminescence, cherry-pick samples (AID 687004). The format is functional, cell-based. Conditions: Homo sapiens.
Experiment [16] concerns the target T2, Histone-lysine N-methyltransferase NSD2 (Homo sapiens, UniProt O96028).
T2 sequence (O96028 whole entry): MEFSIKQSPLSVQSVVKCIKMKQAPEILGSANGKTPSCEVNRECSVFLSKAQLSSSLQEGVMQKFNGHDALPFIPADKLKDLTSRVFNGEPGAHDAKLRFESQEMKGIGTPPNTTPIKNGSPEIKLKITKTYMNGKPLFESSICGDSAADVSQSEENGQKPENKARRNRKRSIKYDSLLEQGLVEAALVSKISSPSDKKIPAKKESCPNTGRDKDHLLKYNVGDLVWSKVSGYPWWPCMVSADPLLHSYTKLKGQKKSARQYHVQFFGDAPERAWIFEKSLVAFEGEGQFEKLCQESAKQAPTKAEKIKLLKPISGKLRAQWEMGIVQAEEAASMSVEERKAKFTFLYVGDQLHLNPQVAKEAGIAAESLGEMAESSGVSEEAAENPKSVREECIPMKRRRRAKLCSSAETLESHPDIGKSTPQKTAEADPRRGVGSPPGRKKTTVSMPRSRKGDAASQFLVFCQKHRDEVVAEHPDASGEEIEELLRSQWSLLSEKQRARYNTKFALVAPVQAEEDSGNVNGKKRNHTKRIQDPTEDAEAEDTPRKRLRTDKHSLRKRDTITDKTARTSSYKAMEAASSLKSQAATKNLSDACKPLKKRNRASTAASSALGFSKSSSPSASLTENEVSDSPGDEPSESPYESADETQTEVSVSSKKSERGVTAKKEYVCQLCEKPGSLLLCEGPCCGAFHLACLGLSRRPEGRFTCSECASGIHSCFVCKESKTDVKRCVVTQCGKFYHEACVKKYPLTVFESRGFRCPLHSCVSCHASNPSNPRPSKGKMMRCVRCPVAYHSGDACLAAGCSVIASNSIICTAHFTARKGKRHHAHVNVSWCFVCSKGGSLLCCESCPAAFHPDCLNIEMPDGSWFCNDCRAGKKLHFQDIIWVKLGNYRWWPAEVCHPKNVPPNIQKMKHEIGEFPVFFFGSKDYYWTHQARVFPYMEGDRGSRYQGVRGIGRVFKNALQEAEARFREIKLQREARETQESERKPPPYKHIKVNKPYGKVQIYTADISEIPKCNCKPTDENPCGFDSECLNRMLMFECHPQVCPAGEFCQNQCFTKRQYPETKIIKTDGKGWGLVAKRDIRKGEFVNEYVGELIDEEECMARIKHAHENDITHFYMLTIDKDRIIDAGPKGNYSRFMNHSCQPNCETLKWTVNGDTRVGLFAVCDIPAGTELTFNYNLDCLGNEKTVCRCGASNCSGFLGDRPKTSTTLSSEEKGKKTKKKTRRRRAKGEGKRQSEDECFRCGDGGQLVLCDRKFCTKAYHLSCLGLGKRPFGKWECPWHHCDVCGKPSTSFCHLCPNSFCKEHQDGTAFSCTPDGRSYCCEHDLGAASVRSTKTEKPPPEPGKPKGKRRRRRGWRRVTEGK
The format is biochemical.

For the next experiment, the target named is Large T antigen (Simian virus 40, UniProt P03070). The format is functional, Betapolyomavirus macacae.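 Note: Confirmatory-stage PubChem screen for compounds that inhibit SV40 T antigen.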
Chain of Large T antigen (P03070 whole entry, the tested form may be a part): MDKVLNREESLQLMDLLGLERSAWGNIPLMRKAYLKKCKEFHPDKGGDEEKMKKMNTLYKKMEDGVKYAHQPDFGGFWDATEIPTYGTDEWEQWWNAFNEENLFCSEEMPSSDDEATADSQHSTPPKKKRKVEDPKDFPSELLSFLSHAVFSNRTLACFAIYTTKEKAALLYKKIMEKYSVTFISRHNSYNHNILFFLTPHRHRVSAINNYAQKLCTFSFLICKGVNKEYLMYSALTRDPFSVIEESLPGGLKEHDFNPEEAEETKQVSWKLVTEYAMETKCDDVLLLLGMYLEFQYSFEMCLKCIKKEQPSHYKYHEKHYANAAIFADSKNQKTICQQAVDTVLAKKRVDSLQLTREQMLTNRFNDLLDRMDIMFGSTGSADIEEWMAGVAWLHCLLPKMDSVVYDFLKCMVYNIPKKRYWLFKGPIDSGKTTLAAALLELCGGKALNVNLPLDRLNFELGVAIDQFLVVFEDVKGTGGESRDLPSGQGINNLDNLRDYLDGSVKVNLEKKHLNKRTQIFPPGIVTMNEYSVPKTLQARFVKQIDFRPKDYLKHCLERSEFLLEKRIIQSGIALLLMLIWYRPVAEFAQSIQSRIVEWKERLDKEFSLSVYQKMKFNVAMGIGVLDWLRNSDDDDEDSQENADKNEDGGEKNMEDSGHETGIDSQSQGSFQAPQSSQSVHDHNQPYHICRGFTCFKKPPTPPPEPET
Experiment [17] has as its target T3, Fibrinogen beta chain (Homo sapiens, UniProt P02675). Put plainly: Fluorescence polarization-based biochemical high throughput dose response assay to identify inhibitors that disrupt the binding of a cyclic peptide (Tn6) to the fibrin proteolytic product D-Dimer and fragment E complex [DD(E )].
Experiment [18] concerns the target E3 ubiquitin-protein ligase XIAP (Homo sapiens, UniProt P98170). Description: Counter Screen using XIAP-Bir3 for Chemical Antagonists of Bir1/2 domains of IAP-family anti-apoptotic proteins. [Related pubchem assays (depositor defined):AID1018, AID1449, AID1514, AID1638, AID1749, AID1750, AID488957, AID488963].
The target in experiment [19] is T4, Tyrosyl-DNA phosphodiesterase 2 (Homo sapiens, UniProt O95551).
T4 sequence (O95551 whole entry): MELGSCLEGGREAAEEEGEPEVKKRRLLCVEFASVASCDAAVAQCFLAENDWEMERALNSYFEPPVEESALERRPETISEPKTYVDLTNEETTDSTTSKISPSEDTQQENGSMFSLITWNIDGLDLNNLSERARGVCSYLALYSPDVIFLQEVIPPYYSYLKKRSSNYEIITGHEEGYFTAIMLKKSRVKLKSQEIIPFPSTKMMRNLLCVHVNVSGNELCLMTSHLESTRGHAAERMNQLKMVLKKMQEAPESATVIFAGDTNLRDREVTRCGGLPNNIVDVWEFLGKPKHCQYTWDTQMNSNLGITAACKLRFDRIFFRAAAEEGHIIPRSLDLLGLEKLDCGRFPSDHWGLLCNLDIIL
Put plainly: human TDP2 enzyme inhibitors, dose response, biochemical, epi absorbance, IC50 (AID 743297).

The target of experiment [20] is T3, Fibrinogen beta chain. Put plainly: Fluorescence polarization-based biochemical high throughput dose response assay to identify inhibitors that disrupt the binding of a cyclic peptide (Tn7) to the fibrin proteolytic product D-Dimer and fragment E complex [DD(E )].
The nature of experiment [21]: growth inhibition of intracellular T. cruzi, dose response, cell-based, plate reader, dry powder samples (AID 651845). The format is functional.
The nature of experiment [22]: T. cruzi growth inhibition in host cells, dose response, cell-based, plate reader, dry powder, set 2 (AID 652275). The format is functional.
Experiment [23] can be described thus: T. cruzi intracellular amastigote growth inhibition, dose response, imaging, CA-I/72 strain, bovine embryo skeletal muscle, dry powder (AID 651885). The format is functional, cell-based.
Experiment [24] is described as follows: P. falciparum Dd2 growth inhibitors, dose response, SYBR Green, cherry-picked samples (AID 1159567). The format is functional, cell-based.
A short description of experiment [25]: P. falciparum ATP4 D1247Y mutant growth inhibitors, dose response, NITD609-resistant line, SYBR Green, dry powder (AID 1159571).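 Note: parasites synchronized at ring stage by sorbitol before testing.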 The format is functional, cell-based.
Experiment [26] can be described thus: P. falciparum 3D7-ScDHODH growth inhibitors, dose response, SYBR Green, dry powder samples (AID 1159570).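 Note: parasite growth measured after 72 hours of compound exposure.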 The format is functional, cell-based.
Experiment [27] is described as follows: P. falciparum Dd2 growth inhibitors, dose response, SYBR Green, dry powder samples (AID 1159566).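 Note: potency for growth inhibition with lower SYBR green DNA signal.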 The format is functional, cell-based.
Experiment [28] in a line: HepG2 cell cytotoxicity, dose response, cytotoxicity control, cherry-picked samples (AID 1159577). The format is functional, cell-based.
A short description of experiment [29]: Mtb BioA inhibitors by displacement, dose response, biochemical, coupled fluorescence displacement, 20-point, dry powder (AID 743357). The format is functional.

The source made the active and inactive calls.

T3 sequence (P02675 whole entry, the tested form may be a part): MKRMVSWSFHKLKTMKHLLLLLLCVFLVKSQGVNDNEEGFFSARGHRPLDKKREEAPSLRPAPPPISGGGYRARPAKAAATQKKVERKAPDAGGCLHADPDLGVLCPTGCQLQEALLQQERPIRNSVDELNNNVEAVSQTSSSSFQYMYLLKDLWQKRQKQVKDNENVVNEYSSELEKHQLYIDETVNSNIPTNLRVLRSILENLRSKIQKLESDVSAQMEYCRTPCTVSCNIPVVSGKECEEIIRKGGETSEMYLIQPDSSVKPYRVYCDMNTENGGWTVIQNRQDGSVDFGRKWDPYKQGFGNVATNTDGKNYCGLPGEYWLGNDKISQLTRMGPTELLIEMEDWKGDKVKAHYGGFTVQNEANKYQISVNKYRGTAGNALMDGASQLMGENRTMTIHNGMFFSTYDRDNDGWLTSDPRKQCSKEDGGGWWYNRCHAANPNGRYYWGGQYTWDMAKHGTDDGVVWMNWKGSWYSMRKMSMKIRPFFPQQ
Chain of E3 ubiquitin-protein ligase XIAP (P98170 whole entry): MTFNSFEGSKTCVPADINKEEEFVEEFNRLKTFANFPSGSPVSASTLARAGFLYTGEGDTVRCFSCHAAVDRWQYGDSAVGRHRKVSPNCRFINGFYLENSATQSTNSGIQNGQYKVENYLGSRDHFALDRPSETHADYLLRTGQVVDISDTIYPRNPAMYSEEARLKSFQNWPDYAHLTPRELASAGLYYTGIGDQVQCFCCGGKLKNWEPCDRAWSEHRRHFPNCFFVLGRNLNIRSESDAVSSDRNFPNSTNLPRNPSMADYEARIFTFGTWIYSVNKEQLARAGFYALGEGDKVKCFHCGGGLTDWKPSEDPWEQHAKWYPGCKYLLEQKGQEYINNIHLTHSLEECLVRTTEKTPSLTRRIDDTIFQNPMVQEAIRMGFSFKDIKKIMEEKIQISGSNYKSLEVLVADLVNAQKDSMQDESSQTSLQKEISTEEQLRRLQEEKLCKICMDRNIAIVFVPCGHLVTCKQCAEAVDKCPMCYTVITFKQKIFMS

For the compound `O=C(O)C1=NN(c2cc(Cl)c(S(=O)(=O)O)cc2Cl)C(=O)C1`, the IC50 at ELAV-like protein 1 was 16.7 µM (inactive).

As to `CN1CCC(=C2c3ccccc3C=Cc3ccccc32)CC1` [CYPROHEPTADINE], the IC50 in experiment [1] was 5.92 µM (inactive); in experiment [2], > 20 µM (inactive); in [3] it was 11.3 µM (inactive); in [4] it was > 20 µM (inactive); in [5], > 20 µM (inactive); in [6], > 20 µM (inactive). The IC50 in experiment [7] was 10.8 µM (inactive); in experiment [8], > 20 µM (inactive).

`COc1ccc(/C=N/NC(=O)c2ccncc2)cc1OC` [VERAZIDE]: the IC50 in experiment [9] was > 33.3 µM (inactive); in experiment [10] it was 20 µM (inactive); in experiment [11], > 40 µM (inactive).

As to `Cc1ccc(OCCn2c(S)nc3ccccc32)c(C(C)C)c1`, the AC50 was 11.2 µM (active) in the experiment on Cryptococcus neoformans [12], 10.3 µM (active) in experiment [13], 20.7 µM (active) in the experiment with Cryptococcus neoformans [15] and 37.9 µM (active) in the experiment on HeLa. Moreover, the EC50 is 17.2 µM (active) with Streptococcus, 15.2 µM (active) at Streptokinase A and 2.73 µM (active) in experiment [14].

Regarding `O=C(O)CCCNc1cc(N2CCN(C(=O)c3ccco3)CC2)c2noc3c2c1C(=O)c1ccccc1-3`, the half-maximal activity concentration (AC50) in experiment [16] was 14.8 µM (active). Further, the EC50 is 31.8 µM (active) with Streptococcus, > 150 µM (not active) at Streptokinase A and 5.52 µM (active) in experiment [14]. Further, the IC50 at Large T antigen is > 100 µM (active); on Fibrinogen beta chain [17], 4.96 µM (active); in experiment [18], > 20 µM (inactive); in experiment [19], > 128 µM (inactive); on Fibrinogen beta chain [20], > 83.3 µM (inactive).

Turning to `C[C@@H]1CN([C@@H](C)CO)C(=O)c2cccc(NC(=O)c3ccncc3)c2O[C@H]1CN(C)Cc1ccc2c(c1)OCO2`, the AC50 in experiment [21] is 57.1 nM (active); in experiment [22], 17 nM (active). In addition, the IC50 in experiment [23] is 56.5 nM (active).

Turning to `CCC(=O)N1CCC2(CC1)CN(S(=O)(=O)c1ccccc1)[C@@H](CO)c1[nH]c3cc(OC)ccc3c12`, the AC50 was 2.04 µM (active) in [24], 961 nM (active) in experiment [25], 1.31 µM (active) in experiment [26] and 1.47 µM (active) in experiment [27].

`Cc1cccc(S(=O)(=O)N2CCCCN3[C@@H](CO)[C@@H](c4ccc(C#CC(C)C)cc4)[C@@H]3C2)c1`: the AC50 in [24] was 1.18 µM (active); in [28], 15.1 µM (active).

Consider `COC(=O)c1ccc(N2CCN(C(=O)c3ccc4c(c3)OCO4)CC2)cc1`, for which, in [29], the half-maximal activity concentration (AC50) is 12.4 µM (active).
